Measurements as given in ChEMBL document CHEMBL5625170, “Design, synthesis, and biological evaluation of novel penindolone derivatives as potential inhibitors of hemagglutinin-mediated membrane fusion” (Eur J Med Chem, 2023).
Active and inactive are the calls of the source. The rule behind the calls is not given here.

Columns and labels:
[1] = biological target: Hemagglutinin (Influenza A virus (A/Puerto Rico/8/1934(H1N1))) (UniProt P03452); assay: Blockade of Influenza A virus (A/Puerto Rico/8/34) Hemagglutinin-mediated membrane fusion in Vero cells expressing PR8 HA assessed as syncytium formation at pH 5 and measured at 20 uM measured after 2 hrs by polykaryon assay; type: cell-based
[2] = biological target: Hemagglutinin (Influenza A virus (A/Puerto Rico/8/1934(H1N1))) (UniProt P03452); assay: Blockade of Influenza A virus (A/Puerto Rico/8/34) Hemagglutinin-mediated membrane fusion in Vero cells expressing PR8 HA assessed as syncytium formation at pH 5 at 5 to 20 uM by quantitative membrane fusion assay; type: cell-based; conditions: dose 5-20 µM
[3] = Cytotoxicity against dog MDCK cells assessed as cell viability measured after 48 hrs by MTT assay; type: toxicity, cell-based, Canis lupus familiaris
[4] = Selectivity index, ratio of CC50 for cytotoxicity against dog MDCK cells to IC50 for anti-viral activity against Influenza A virus (A/Puerto Rico/8/34 infected in MDCK cells; type: toxicity, cell-based; conditions: read-out: Selectivity Index
[5] = biological target: Hemagglutinin (Influenza A virus (A/Puerto Rico/8/1934(H1N1)), UniProt P03452); assay: Binding affinity to Influenza A virus (A/Puerto Rico/8/34) Hemagglutinin by surface plasmon resonance (SPR) assay
[6] = tested on: Influenza A virus; assay: In vivo antiviral activity against Influenza A virus (A/Puerto Rico/8/34) infected in BALB/c mouse assessed as increase in mouse survival at 10 mg/kg, po once daily treated after 4 hrs of inoculation for 14 days relative to control; type: functional; conditions: A/Puerto Rico/8/34, 336 h, time 14 day
[7] = tested on: Influenza A virus; assay: (§1) In vivo antiviral activity against Influenza A virus (A/Puerto Rico/8/34) infected in BALB/c mouse assessed as intact columnar epithelia in bronchiole without inflammatory cell infiltration at 10 mg/kg, po once daily treated after 4 hrs of inoculation for 4 days relative to control by HE staining based histopathological analysis; type: functional, organism-based
[8] = Toxicity in BALB/c mouse infected with Influenza A virus (A/Puerto Rico/8/34) assessed as death at 10 mg/kg, po after 11 days; type: organism-based; conditions: in vivo, 264 h, time 11 day
[9] = Toxicity in BALB/c mouse infected with Influenza A virus (A/Puerto Rico/8/34) assessed as decrease in body weight at 10 mg/kg, po upto 8 days; type: organism-based; conditions: in vivo, 192 h, time < 8 day
[10] = tested on: Influenza A virus; assay: Anti-viral activity against Influenza A virus H1N1 (A/WSN/33; WSN) infected in MDCK cells assessed as inhibition of virus cytopathic effect measured after 48 hrs by crystal violet staining based assay; type: functional
[11] = tested on: Influenza B virus; assay: Anti-viral activity against Influenza B virus strain (B/Hong Kong/5/72) infected in MDCK cells assessed as inhibition of virus cytopathic effect measured after 48 hrs by crystal violet staining based assay; type: functional
[12] = biological target: Hemagglutinin (Influenza A virus (A/Puerto Rico/8/1934(H1N1))) (UniProt P03452); assay: Inhibition of trypsin-mediated Influenza A virus (A/Puerto Rico/8/34) hemagglutinin protein digestion pretreated at 50 uM for 20 mins at pH 5 followed by treated with trypsin for 30 mins at pH 8.5 by SDS-PAGE/trypsin susceptibility (TS) assay
[13] = tested on: Influenza A virus; assay: Anti-viral activity against Influenza H1N1 virus (A/Virginia09/ATCC1/2009; Vir09) infected (at MOI = 3) in MDCK cell assessed as reduction in hemagglutinin titer using chicken RBC measured after 60 mins by hemagglutinin assay; type: functional, organism-based; conditions: H1N1 A/Virginia09/ATCC1/2009, dose 5-20 µM
[14] = biological target: Hemagglutinin (Influenza A virus (A/Puerto Rico/8/1934(H1N1))) (UniProt P03452); assay: Blockade of Influenza A virus (A/Puerto Rico/8/34) Hemagglutinin-mediated membrane fusion in Vero cells expressing PR8 HA assessed as syncytium formation at pH 5 and measured at 15 uM measured after 2 hrs by polykaryon assay; type: cell-based
[15] = tested on: Influenza A virus; assay: Anti-viral activity against Influenza A virus H1N1 (A/Puerto Rico/8/34) infected (at MOI = 3) in MDCK cell assessed as reduction in hemagglutinin titer using chicken RBC measured after 60 mins by hemagglutinin assay; type: functional, organism-based; conditions: H1N1 A/Puerto Rico/8/34, MDCK, 1 h
[16] = Cytotoxicity against african green monkey Vero cells assessed as cell viability measured after 48 hrs by MTT assay; type: toxicity, cell-based; conditions: chlorocebus sabaeus
[17] = biological target: Hemagglutinin (Influenza A virus (A/Puerto Rico/8/1934(H1N1))) (UniProt P03452); assay: Blockade of Influenza A virus (A/Puerto Rico/8/34) Hemagglutinin-mediated membrane fusion in Vero cells expressing PR8 HA assessed as syncytium formation at pH 5 by quantitative membrane fusion assay; type: cell-based; conditions: dose 5-40 µM
[18] = tested on: Influenza A virus; assay: Potency index, ratio of penindolone-IC50 to test compound IC50 for anti-viral activity against Influenza A virus (A/Puerto Rico/8/34) infected in MDCK cells; type: functional
[19] = Cytotoxicity against human A549 cells assessed as cell viability measured after 48 hrs by MTT assay; type: toxicity, cell-based
[20] = tested on: Influenza A virus; assay: Anti-viral activity against Influenza virus H3N2 (A/Aichi/2/68; Aichi) infected (at MOI = 3) in MDCK cell assessed as reduction in hemagglutinin titer using chicken RBC measured after 60 mins by hemagglutinin assay; type: functional, organism-based; conditions: 1 h
[21] = tested on: MDCK; assay: Reduction in NP protein expression in Influenza A virus (A/Puerto Rico/8/34) infected in MDCK cell at 40 uM after 60 mins by Western blot analysis; type: functional, cell-based
[22] = tested on: Influenza A virus; assay: In vivo antiviral activity against Influenza A virus (A/Puerto Rico/8/34) infected in BALB/c mouse assessed as increase in mouse survival at 2.5 mg/kg, po once daily treated after 4 hrs of inoculation for 14 days relative to control; type: functional; conditions: A/Puerto Rico/8/34, 336 h, time 14 day
[23] = tested on: Influenza A virus; assay: as §1, with “5” for “10”; type: functional, organism-based
[24] = tested on: Influenza A virus; assay: In vivo antiviral activity against Influenza A virus (A/Puerto Rico/8/34) infected in BALB/c mouse assessed as increase in mouse survival at 2.5 mg/kg, po once daily treated after 4 hrs of inoculation for 5 days; type: functional, organism-based; conditions: time 5.0 day
[25] = Toxicity in BALB/c mouse infected with Influenza A virus (A/Puerto Rico/8/34) assessed as decrease in body weight at 2.5 mg/kg, po upto 8 days; type: organism-based; conditions: in vivo, 192 h, time < 8 day
[26] = Toxicity in BALB/c mouse infected with Influenza A virus (A/Puerto Rico/8/34) assessed as death at 2.5 mg/kg, po after 8 days; type: organism-based; conditions: in vivo, 192 h, time 8 day
[27] = tested on: MDCK; assay: Reduction in NS1 protein expression in Influenza A virus (A/Puerto Rico/8/34) infected in MDCK cell after 60 mins by Western blot analysis; type: functional, cell-based
[28] = tested on: Influenza A virus; assay: In vivo antiviral activity against Influenza A virus (A/Puerto Rico/8/34) infected in BALB/c mouse assessed as decrease in pulmonary viral titers at 2.5 to 5 mg/kg, po once daily treated after 4 hrs of inoculation for 4 days relative to control; type: functional, organism-based; conditions: dose 2.5-5 mg/kg, time 4.0 day
[29] = tested on: Influenza A virus; assay: Anti-viral activity against Influenza A virus H1N1 (A/Virginia09/ATCC1/2009; Vir09) infected in MDCK cells assessed as inhibition of virus cytopathic effect measured after 48 hrs by crystal violet staining based assay; type: functional
[30] = tested on: Influenza A virus; assay: Anti-viral activity against Influenza virus H3N2 (A/Aichi/2/68; Aichi) infected in MDCK cells assessed as inhibition of virus cytopathic effect measured after 48 hrs by crystal violet staining based assay; type: functional
[31] = tested on: MDCK; assay: Reduction in HA2 protein expression in Influenza A virus (A/Puerto Rico/8/34) infected in MDCK cell after 60 mins by Western blot analysis; type: functional, cell-based; conditions: dose 2.5-20 µM

Chain of Hemagglutinin (Influenza A virus (A/Puerto Rico/8/1934(H1N1))) (P03452 whole entry, the tested form may be a part): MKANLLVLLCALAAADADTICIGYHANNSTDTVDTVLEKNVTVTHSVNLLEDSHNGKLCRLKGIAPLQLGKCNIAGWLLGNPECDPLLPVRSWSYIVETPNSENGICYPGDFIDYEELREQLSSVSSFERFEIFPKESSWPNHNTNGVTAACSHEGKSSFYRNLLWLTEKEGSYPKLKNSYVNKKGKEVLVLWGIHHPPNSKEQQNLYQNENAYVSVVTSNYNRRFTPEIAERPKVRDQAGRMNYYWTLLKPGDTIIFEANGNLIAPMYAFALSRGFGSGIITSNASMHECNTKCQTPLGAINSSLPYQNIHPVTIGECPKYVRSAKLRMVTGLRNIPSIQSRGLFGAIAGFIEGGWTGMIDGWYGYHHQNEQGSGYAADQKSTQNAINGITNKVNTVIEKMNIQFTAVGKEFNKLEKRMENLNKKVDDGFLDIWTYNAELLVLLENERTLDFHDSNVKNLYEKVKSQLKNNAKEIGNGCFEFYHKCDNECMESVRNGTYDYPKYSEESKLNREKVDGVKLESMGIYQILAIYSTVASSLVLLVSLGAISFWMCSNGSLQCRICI
Chain of Hemagglutinin (Influenza A virus (A/Puerto Rico/8/1934(H1N1)), UniProt P03452) (P03452 whole entry): as the sequence (P03452 whole entry, the tested form may be a part) above

## CC(=O)c1cc(C)c(O)c(Cc2[nH]c3ccccc3c2Cc2c(O)c(C)cc(C(C)=O)c2O)c1O
[1]
  inhibition: Active
[2]
  inhibition: Active
[3]
  CC50 at 48 h: > 300 µM
[4]
  selectivity ratio: > 11.8
[5]
  Kd: 8.4 µM

## CCOC(=O)C1=C[C@@H](OC(CC)CC)[C@H](NC(C)=O)[C@@H](N)C1 [OSELTAMIVIR]
[6]
  survival at 10 mg/kg: 80%
[3]
  CC50 at 48 h: > 300 µM
[4]
  selectivity ratio: > 26.3
[7]
  Activity: Active
[8]
  Activity: Non-Toxic
[9]
  Activity: Toxic

## CC(=O)c1cc(C)c(O)c(Cc2[nH]c3ccc(-c4ccc5ncccc5c4)cc3c2Cc2c(O)c(C)cc(C(C)=O)c2O)c1O
[3]
  CC50 at 48 h: > 300 µM
[4]
  selectivity ratio: > 16.2

## CC(=O)c1cc(C)c(O)c(Cc2[nH]c3cc(-c4c5ccccc5cc5ccccc45)ccc3c2Cc2c(O)c(C)cc(C(C)=O)c2O)c1O
[3]
  CC50 at 48 h: > 300 µM
[4]
  selectivity ratio: > 36.1

## COc1ccc(-c2ccc3[nH]c(Cc4c(O)c(C)cc(C(C)=O)c4O)c(Cc4c(O)c(C)cc(C(C)=O)c4O)c3c2)cc1OC
[3]
  CC50 at 48 h: > 300 µM
[4]
  selectivity ratio: > 16.6

## CC(=O)c1cc(C)c(O)c(Cc2[nH]c3ccc(-c4c5ccccc5cc5ccccc45)cc3c2Cc2c(O)c(C)cc(C(C)=O)c2O)c1O
[10]
  inhibition (INH): 5.6%
[11]
  inhibition (INH): 3.4%
[12]
  inhibition: Active
[13]
  inhibition: Dose-Dependent Effect
[14]
  inhibition: Active
[15]
  IC50: < 5 µM
[16]
  CC50 at 48 h: 1350 µM
[17]
  inhibition: Dose-Dependent Effect
[18]
  Ratio IC50: 3.8
[19]
  CC50 at 48 h: 180 µM
[20]
  IC50: < 10 µM
[21]
  inhibition: Active
[3]
  CC50 at 48 h: > 300 µM
[4]
  selectivity ratio: > 44.8
[22]
  survival at 2.5 mg/kg: 70%
[23]
  Activity: Active
[24]
  Activity: Active
[25]
  Activity: Non-Toxic
[26]
  Activity: Toxic
[27]
  inhibition: Dose-Dependent Effect
[5]
  Kd: 6.4 µM
[28]
  Activity: Active
[29]
  inhibition (INH): 13.5%
[30]
  inhibition (INH): 8.7%
[31]
  inhibition: Dose-Dependent Effect

## CC(=O)c1cc(C)c(O)c(Cc2[nH]c3ccc(-c4csc5ccccc45)cc3c2Cc2c(O)c(C)cc(C(C)=O)c2O)c1O
[3]
  CC50 at 48 h: > 300 µM
[4]
  selectivity ratio: > 12.8

## CC(=O)c1cc(C)c(O)c(Cc2[nH]c3ccc(-c4ccc(C)cc4)cc3c2Cc2c(O)c(C)cc(C(C)=O)c2O)c1O
[3]
  CC50 at 48 h: > 300 µM
[4]
  selectivity ratio: > 19.4

## CC(=O)c1cc(C)c(O)c(Cc2[nH]c3cc(-c4ccc5c(c4)OCCO5)ccc3c2Cc2c(O)c(C)cc(C(C)=O)c2O)c1O
[3]
  CC50 at 48 h: > 300 µM
[4]
  selectivity ratio: > 15.5

## COc1cccc(OC)c1-c1ccc2[nH]c(Cc3c(O)c(C)cc(C(C)=O)c3O)c(Cc3c(O)c(C)cc(C(C)=O)c3O)c2c1
[3]
  CC50 at 48 h: 271 µM
[4]
  selectivity ratio: 12.9

## CC(=O)c1cc(C)c(O)c(Cc2[nH]c3ccc(-c4ccc(Cl)cc4)cc3c2Cc2c(O)c(C)cc(C(C)=O)c2O)c1O
[3]
  CC50 at 48 h: > 300 µM
[4]
  selectivity ratio: > 11.1
